This is an account of results in patent publication US9771370B2, “Compounds for the inhibition of indoleamine-2,3-dioxygenase” (Merck Patent GmbH, priority 2014, dated 2017).

Bounds are passed on as bounds.

Chain of Recombinant human IDO (P14902 whole entry): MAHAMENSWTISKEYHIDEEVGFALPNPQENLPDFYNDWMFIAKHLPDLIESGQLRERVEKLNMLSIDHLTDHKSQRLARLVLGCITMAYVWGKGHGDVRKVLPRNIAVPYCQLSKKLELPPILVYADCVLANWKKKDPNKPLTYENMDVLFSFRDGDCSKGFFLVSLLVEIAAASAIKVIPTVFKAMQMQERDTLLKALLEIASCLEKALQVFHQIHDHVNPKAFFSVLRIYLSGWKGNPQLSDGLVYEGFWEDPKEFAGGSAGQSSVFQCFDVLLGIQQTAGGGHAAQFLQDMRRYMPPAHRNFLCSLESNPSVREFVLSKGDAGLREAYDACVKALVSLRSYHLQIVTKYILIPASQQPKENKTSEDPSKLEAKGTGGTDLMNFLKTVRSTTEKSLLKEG

This assay deals with Recombinant human IDO (Homo sapiens, UniProt P14902). The assay is described as follows: Bridge-IT tryptophan fluorescence assay of human IDO-1 inhibition. Type of assay: biochemical. Particulars: recombinant human IDO 7.5 nM, L-tryptophan. The method, then:
Measurement of human IDO-1 inhibition is performed in 384 well format using the Bridge-IT® tryptophan Fluorescence Assay (Mediomics, LLC, St. Louis, Mo., U.S.A.).
The reaction is initiated by the addition of L-Tryptophan (Sigma) at a final concentration of 100 μM in assay buffer. After 90 minutes of incubation at 37° C., the reaction is stopped by transferring 1 μl of the reaction mixture to 9 μl of Bridge-IT assay solution A. After 30 min of incubation at 30° C., the fluorescence intensity was measured at λex=485 nm and λem=665 nm using Perkin Elmer Envision® Multilabel Reader.
Measurement of human IDO-1 inhibition was performed in 384-well format using the BRIDGE-IT® tryptophan Fluorescence Assay (Mediomics, LLC, St. Louis, Mo., U.S.A.). […] After 30 minutes of pre-incubation at 25° C., the reaction was initiated by the addition of L-Tryptophan (Sigma) at a final concentration of 50 μM in assay buffer. After 60 minutes of incubation at 25° C., the reaction is stopped by transferring 1 μl of the reaction mixture to 9 μl of Bridge-IT assay solution A. After 30 min of incubation at 30° C., the fluorescence intensity was measured at λex=485 nm and λem=665 nm using Perkin Elmer ENVISION® Multilabel Reader.
As to `c1cnc2c(c1)-c1cncn1C2CCC1CCCCC1` (stereo not drawn) [Compound 50, 7-(2-cyclohexylethyl)-4,6,9-triazatricyclo[6.4.0.0^[2,6]]dodeca-1(8),2,4,9,11-pentaene], the IC50 is 100 to 1000 nM.
As for `COc1cc2c(cn1)-c1cncn1C2CCC1(F)CCCCC1` (single isomer, unassigned) [Compound 15b, 7-[2-(1-fluorocyclohexyl)ethyl]-10-methoxy-4,6,11-triazatricyclo[6.4.0.0^[2,6]]dodeca-1(8),2,4,9,11-pentaene], the figure is > 1000 nM; as for `OC1CCC(F)(CCC2c3ncccc3-c3cncn32)CC1` (mixture of isomers) [Compound 7b, 4-fluoro-4-(2-{4,6,9-triazatricyclo[6.4.0.0^[2,6]]dodeca-1(8),2,4,9,11-pentaen-7-yl}ethyl)cyclohexan-1-ol], > 1000 nM; as for `OC(CC1c2ncccc2-c2cncn21)C1CCC(C2(O)CC2)CC1` (single isomer, unassigned) [Compound 117d, 1-[4-[1-hydroxy-2-[4,6,9-triazatricyclo[6.4.0.0^[2,6]]dodeca-1(8),2,4,9,11-pentaen-7-yl]ethyl]cyclohexyl]cyclopropan-1-ol], > 1000 nM.
For the compound `OC(CC1c2nc(OC3CC3)ccc2-c2cncn21)C1CCCCC1` (single isomer, unassigned) [Compound 68a, 1-cyclohexyl-2-[10-cyclopropoxy-4,6,9-triazatricyclo[6.4.0.0^[2,6]]dodeca-1(8),2,4,9,11-pentaen-7-yl]ethan-1-ol], the concentration for half-maximal inhibition (IC50) lay within 100 to 1000 nM.
With `Fc1ccc(F)c2c1-c1cncn1C2CCC1(F)CCCCC1` (single isomer, unassigned) [Compound 37b, 6,9-difluoro-5-(2-(1-fluorocyclohexyl)ethyl)-5H-imidazo[5,1-a]isoindole], the IC50 is 100 to 1000 nM.
`FC1(CCC2c3ncccc3-c3cncn32)CCCCC1` (single isomer, unassigned) [Compound 18b, 7-[2-(1-fluorocyclohexyl)ethyl]-4,6,9-triazatricyclo[6.4.0.0^[2,6]]dodeca-1(8),2,4,9,11-pentaene]: the IC50 is > 1000 nM.
For `OC(CC1c2ncncc2-c2cncn21)C1CCCCC1` (single isomer, unassigned) [Compound 67b, 1-cyclohexyl-2-[4,6,9,11-tetraazatricyclo[6.4.0.0^[2,6]]dodeca-1(8),2,4,9,11-pentaen-7-yl]ethan-1-ol] the value was > 1000 nM; for `OC1CCC(F)(CCC2c3cccc(F)c3-c3cncn32)CC1` (single isomer, unassigned) [Compound 35d, 4-fluoro-4-(2-(9-fluoro-5H-imidazo[5,1-a]isoindol-5-yl)ethyl)cyclohexanol], > 1000 nM.
Regarding `OC(CC1c2nc(F)ccc2-c2cncn21)C1CCCCC1` (stereo not drawn) [Compound 31a, 1-cyclohexyl-2-[10-fluoro-4,6,9-triazatricyclo[6.4.0.0^[2,6]]dodeca-1(8),2,4,9,11-pentaen-7-yl]ethan-1-ol], the half-maximal inhibitory concentration (IC50) lay within 100 to 1000 nM.
As for `OC(CC1c2nc(C(F)(F)F)ccc2-c2cncn21)C1CCC(F)(F)CC1` (single isomer, unassigned) [Compound 77a, 1-(4,4-difluorocyclohexyl)-2-[10-(trifluoromethyl)-4,6,9-triazatricyclo[6.4.0.0^[2,6]]dodeca-1(8),2,4,9,11-pentaen-7-yl]ethan-1-ol], the figure is > 1000 nM; as for `COc1ccc(F)c2c1-c1cncn1C2CCC1(F)CCCCC1` (single isomer, unassigned) [Compound 45b, 6-fluoro-5-(2-(1-fluorocyclohexyl)ethyl)-9-methoxy-5H-imidazo[5,1-a]isoindole], > 1000 nM.
Take `O=C(C1CCC(F)(CCC2c3ncccc3-c3cncn32)CC1)N1CCCCC1` (mixture of isomers) [Compound 100a, 7-[2-[1-Fluoro-4-[(piperidin-1-yl)carbonyl]cyclohexyl]ethyl]-4,6,9-triazatricyclo[6.4.0.0^[2,6]]dodeca-1(8),2,4,9,11-pentaene]: the 50% inhibitory concentration (IC50) was 100 to 1000 nM.
For `COc1ccc2c(n1)C(CC(O)C1CCC(C)(C)CC1)n1cncc1-2` (single isomer, unassigned) [Compound 40b, 1-(4,4-dimethylcyclohexyl)-2-[10-methoxy-4,6,9-triazatricyclo[6.4.0.0^[2,6]]dodeca-1(8),2,4,9,11-pentaen-7-yl]ethan-1-ol] the value was 100 to 1000 nM; for `NC(=O)C1CCC(F)(CCC2c3c(Cl)cccc3-c3cncn32)CC1` (single isomer, unassigned) [Compound 99b, 4-[2-[6-chloro-5H-imidazo[4,3-a]isoindol-5-yl]ethyl]-4-fluorocyclohexane-1-carboxamide], 100 to 1000 nM.
For `OC(CC1c2c(Cl)cccc2-c2cncn21)C1(F)CCCCC1` (single isomer, unassigned) [Compound 83a, 2-[6-chloro-5H-imidazo[4,3-a]isoindol-5-yl]-1-(1-fluorocyclohexyl)ethan-1-ol] the value was > 1000 nM; for `OCC1CCC(F)(CCC2c3c(F)cccc3-c3cncn32)CC1` (single isomer, unassigned) [Compound 84c, [4-fluoro-4-[2-[6-fluoro-5H-imidazo[4,3-a]isoindol-5-yl]ethyl]cyclohexyl]methanol], < 100 nM; for `OCC1CCC(F)(CCC2c3ccccc3-c3cncn32)CC1` (single isomer, unassigned) [Compound 59a, [4-fluoro-4-[2-[5H-imidazo[4,3-a]isoindol-5-yl]ethyl]cyclohexyl]methanol], > 1000 nM.
For `OC(CC1c2ncccc2-c2cncn21)C1CCC2(CC1)CC2` (single isomer, unassigned) [Compound 29d, 1-[spiro[2.5]octan-6-yl]-2-[4,6,9-triazatricyclo[6.4.0.0^[2,6]]dodeca-1(8),2,4,9,11-pentaen-7-yl]ethan-1-ol] the value was > 1000 nM; for `NC(=O)C1CCC(F)(CCC2c3c(Cl)cccc3-c3cncn32)CC1` (single isomer, unassigned) [Compound 99d, 4-[2-[6-chloro-5H-imidazo[4,3-a]isoindol-5-yl]ethyl]-4-fluorocyclohexane-1-carboxamide], > 1000 nM; for `COc1ccc2c(n1)C(CCC1(F)CCC(F)(F)CC1)n1cncc1-2` (single isomer, unassigned) [Compound 34b, 10-methoxy-7-[2-(1,4,4-trifluorocyclohexyl)ethyl]-4,6,9-triazatricyclo[6.4.0.0^[2,6]]dodeca-1(8),2,4,9,11-pentaene], > 1000 nM.
`COc1ccc2c(n1)C(CC(O)C1CCCCC1)n1cncc1-2` (single isomer, unassigned) [Compound 39a, 1-Cyclohexyl-2-[10-methoxy-4,6,9-triazatricyclo[6.4.0.0^[2,6]]dodeca-1(8),2,4,9,11-pentaen-7-yl]ethan-1-ol]: the IC50 was < 100 nM.
For the compound `CC1(C)CCC(F)(CCC2c3ncccc3-c3cncn32)CC1` (single isomer, unassigned) [Compound 48a, 7-[2-(1-fluoro-4,4-dimethylcyclohexyl)ethyl]-4,6,9-triazatricyclo[6.4.0.0^[2,6]]dodeca-1(8),2,4,9,11-pentaene], the 50% inhibitory concentration (IC50) is > 1000 nM.
For `COc1cc2c(cn1)-c1cncn1C2CC(O)C1CCCCC1` (stereo not drawn) [Compound 11b, 1-cyclohexyl-2-[10-methoxy-4,6,11-triazatricyclo[6.4.0.0^[2,6]]dodeca-1(8),2,4,9,11-pentaen-7-yl]ethan-1-ol] the value was > 1000 nM.
For the compound `FC(CC1c2ncccc2-c2cncn21)C1CCCCC1` (single isomer, unassigned) [Compound 97c, 7-[2-cyclohexyl-2-fluoroethyl]-4,6,9-triazatricyclo[6.4.0.0^[2,6]]dodeca-1(8),2,4,9,11-pentaene], the IC50 fell in the range of 100 to 1000 nM.
For the compound `NC(=O)C1CCC(C(O)CC2c3ncccc3-c3cncn32)CC1` (single isomer, unassigned) [Compound 63b, 4-[1-hydroxy-2-[4,6,9-triazatricyclo[6.4.0.0^[2,6]]dodeca-1(8),2,4,9,11-pentaen-7-yl]ethyl]cyclohexane-1-carboxamide], the concentration for half-maximal inhibition (IC50) was > 1000 nM.
Turning to `COc1ccc2c(n1)C(CC(N)C1CCC(F)(F)CC1)n1cncc1-2` (single isomer, unassigned) [Compound 120b, 1-(4,4-difluorocyclohexyl)-2-[10-methoxy-4,6,9-triazatricyclo[6.4.0.0^[2,6]]dodeca-1(8),2,4,9,11-pentaen-7-yl]ethan-1-amine], the IC50 is > 1000 nM.
Consider `OC(CC1c2ncccc2-c2cncn21)C1CCC(F)(F)CC1` (single isomer, unassigned) [Compound 22d, 1-(4,4-difluorocyclohexyl)-2-[4,6,9-triazatricyclo[6.4.0.0^[2,6]]dodeca-1(8),2,4,9,11-pentaen-7-yl]ethan-1-ol], for which the half-maximal inhibitory concentration (IC50) is > 1000 nM.
For `OC(CC1c2c(Cl)cccc2-c2cncn21)C1(F)CCCCC1` (single isomer, unassigned) [Compound 83c, 2-[6-chloro-5H-imidazo[4,3-a]isoindol-5-yl]-1-(1-fluorocyclohexyl)ethan-1-ol] the value was > 1000 nM; for `COc1ccc2c(n1)C(CC(N)C1CCCCC1)n1cncc1-2` (single isomer, unassigned) [Compound 118b, 1-cyclohexyl-2-[10-methoxy-4,6,9-triazatricyclo[6.4.0.0^[2,6]]dodeca-1(8),2,4,9,11-pentaen-7-yl]ethan-1-amine], 100 to 1000 nM.
